Reference: the supplement of paper PMC10307832

What was measured:
Assay in all cases: relative viability (nuclei count vs DMSO), 5 days (fraction); higher = more cells survive
[1] = compound: NCC(=O)Nc1ccc(-n2nc(C(F)(F)F)cc2-c2ccc3c(ccc4ccccc43)c2)cc1 + Cc1cc(Nc2cc(N3CCN(C)CC3)nc(Sc3ccc(NC(=O)C4CC4)cc3)n2)n[nH]1 [Tozasertib] (partner 0.1 µM)
Outline: (§1)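 Nuclei were stained with Hoechst during a one-step fixation (final 0.05% Triton X-100, 1% formaldehyde, 1 ug/ml Hoechst) carried out 5 days after dosing, then counted on 4× images. The cells, lung cancer lines in 1536-well plates, had been dosed by pin tool the day after seeding with one drug alone or a fixed anchor-drug dose plus five library-drug doses (not always all listed) in √10 steps. Relative viability is the nuclei count in treated wells divided by that in vehicle wells, and each value is the median of duplicate plates.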

[2] = compound: NCC(=O)Nc1ccc(-n2nc(C(F)(F)F)cc2-c2ccc3c(ccc4ccccc43)c2)cc1 + O=C(CCCCCCC(=O)Nc1ccccc1)NO [Vorinostat] (partner 1 µM)
Outline: as §1

[3] = compound: NCC(=O)Nc1ccc(-n2nc(C(F)(F)F)cc2-c2ccc3c(ccc4ccccc43)c2)cc1 + CS(=O)(=O)N1CCN(Cc2cc3nc(-c4cccc5[nH]ncc45)nc(N4CCOCC4)c3s2)CC1 [Pictilisib] (partner 1 µM)
Outline: as §1

[4] = compound: NCC(=O)Nc1ccc(-n2nc(C(F)(F)F)cc2-c2ccc3c(ccc4ccccc43)c2)cc1 + CC(=O)c1c(C)c2cnc(Nc3ccc(N4CCNCC4)cn3)nc2n(C2CCCC2)c1=O [Palbociclib] (partner 0.5 µM)
Outline: as §1

| Cell Line | relative viability ([1]; first compound 0.02 µM) | relative viability ([1]; first compound 0.06325 µM) | relative viability ([1]; first compound 0.2 µM) | relative viability ([1]; first compound 0.6325 µM) | relative viability ([1]; first compound 2 µM) | relative viability ([2]; first compound 0.02 µM) | relative viability ([2]; first compound 0.06325 µM) | relative viability ([2]; first compound 0.2 µM) | relative viability ([2]; first compound 0.6325 µM) | relative viability ([2]; first compound 2 µM) | relative viability ([3]; first compound 0.02 µM) | relative viability ([3]; first compound 0.06325 µM) | relative viability ([3]; first compound 0.2 µM) | relative viability ([3]; first compound 0.6325 µM) | relative viability ([3]; first compound 2 µM) | relative viability ([4]; first compound 0.02 µM) | relative viability ([4]; first compound 0.06325 µM) | relative viability ([4]; first compound 0.2 µM) | relative viability ([4]; first compound 0.6325 µM) | relative viability ([4]; first compound 2 µM) |
| --- | --- | --- | --- | --- | --- | --- | --- | --- | --- | --- | --- | --- | --- | --- | --- | --- | --- | --- | --- | --- |
| NCI-H1666 | 0.579 | 0.63 | 0.578 | 0.584 | 0.572 | 1.03 | 1.07 | 1.13 | 0.938 | 0.944 | 0.554 | 0.424 | 0.437 | 0.505 | 0.404 | 0.658 | 0.677 | 0.69 | 0.616 | 0.624 |
| NCI-H1734 | 0.28 | 0.271 | 0.276 | 0.286 | 0.254 | 0.773 | 0.848 | 0.827 | 0.773 | 0.817 | 0.451 | 0.462 | 0.464 | 0.43 | 0.474 | 0.361 | 0.343 | 0.345 | 0.333 | 0.356 |
| NCI-H1755 | 0.626 | 0.596 | 0.6 | 0.591 | 0.555 | 0.758 | 0.824 | 0.788 | 0.768 | 0.833 | 0.384 | 0.487 | 0.454 | 0.435 | 0.479 | 0.48 | 0.444 | 0.448 | 0.471 | 0.434 |
| NCI-H1793 | 0.343 | 0.346 | 0.368 | 0.393 | 0.324 | 0.758 | 0.874 | 0.699 | 0.793 | 0.86 | 0.263 | 0.401 | 0.343 | 0.455 | 0.349 | 0.333 | 0.295 | 0.337 | 0.339 | 0.363 |
| NCI-H1915 | 0.378 | 0.465 | 0.426 | 0.418 | 0.407 | 0.525 | 0.555 | 0.56 | 0.497 | 0.552 | 0.79 | 1.05 | 0.922 | 0.914 | 0.999 | 0.535 | 0.509 | 0.517 | 0.507 | 0.541 |
| NCI-H1944 | 0.239 | 0.264 | 0.264 | 0.26 | 0.27 | 0.546 | 0.695 | 0.554 | 0.558 | 0.526 | 0.349 | 0.359 | 0.326 | 0.35 | 0.331 | 0.333 | 0.353 | 0.35 | 0.32 | 0.355 |
| NCI-H1975 | 0.7 | 0.841 | 0.839 | 0.726 | 0.747 | 0.728 | 0.729 | 0.804 | 0.704 | 0.747 | 0.273 | 0.307 | 0.292 | 0.335 | 0.307 | 0.657 | 0.61 | 0.615 | 0.485 | 0.586 |
| NCI-H1993 | 0.54 | 0.582 | 0.572 | 0.529 | 0.561 | 0.798 | 0.952 | 0.656 | 0.969 | 0.862 | 0.759 | 0.773 | 0.738 | 0.838 | 0.861 | 0.658 | 0.599 | 0.808 | 0.696 | 0.706 |
| NCI-H2009 | 0.821 | 0.715 | 0.772 | 0.692 | 0.653 | 0.698 | 0.741 | 0.792 | 0.805 | 0.766 | 0.734 | 0.906 | 0.819 | 0.86 | 0.967 | 0.236 | 0.147 | 0.265 | 0.186 | 0.272 |
| NCI-H2023 | 0.326 | 0.394 | 0.441 | 0.387 | 0.321 | 0.619 | 0.854 | 0.58 | 0.653 | 0.621 | 0.229 | 0.232 | 0.201 | 0.207 | 0.242 | 0.461 | 0.414 | 0.391 | 0.345 | 0.297 |
| NCI-H2085 | 0.697 | 0.853 | 0.836 | 0.878 | 0.807 | 0.703 | 0.824 | 0.728 | 0.877 | 0.849 | 0.483 | 0.443 | 0.436 | 0.42 | 0.469 | 0.533 | 0.477 | 0.474 | 0.469 | 0.473 |
| NCI-H2087 | 0.208 | 0.272 | 0.21 | 0.26 | 0.259 | 0.752 | 0.618 | 0.809 | 0.649 | 0.668 | 0.77 | 0.709 | 0.723 | 0.801 | 0.848 | 0.256 | 0.278 | 0.262 | 0.249 | 0.24 |
| NCI-H2126 | 0.842 | 0.892 | 0.874 | 0.864 | 0.852 | 0.78 | 0.858 | 0.768 | 0.756 | 0.773 | 0.47 | 0.51 | 0.45 | 0.532 | 0.502 | 0.369 | 0.334 | 0.369 | 0.385 | 0.327 |
| NCI-H2170 | 0.743 | 0.726 | 0.779 | 0.799 | 0.771 | 0.9 | 0.926 | 0.849 | 0.826 | 0.823 | 0.233 | 0.325 | 0.319 | 0.328 | 0.323 | 0.374 | 0.41 | 0.391 | 0.38 | 0.355 |
| NCI-H2228 | 0.217 | 0.265 | 0.308 | 0.27 | 0.229 | 0.727 | 0.599 | 0.685 | 0.723 | 0.663 | 0.473 | 0.471 | 0.355 | 0.299 | 0.481 | 0.711 | 0.78 | 0.802 | 0.653 | 0.656 |
| NCI-H2347 | 0.586 | 0.71 | 0.482 | 0.618 | 0.73 | 0.604 | 0.688 | 0.685 | 0.611 | 0.673 | 0.831 | 0.668 | 0.706 | 0.738 | 0.711 | 0.426 | 0.384 | 0.448 | 0.473 | 0.419 |
